PubChem BioAssay AID179 (DTP/NCI, 2004)
Calls of active or inactive are those of the source.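 How the source made its calls: active means compounds giving half or more protection of infected cells from virus-caused growth loss, again on retest; inactive means the rest.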

System: CEM cells HIV-1 protection, formazan growth assay
Experiment: NCI AIDS Antiviral Assay
Conditions: for IC50: measured here: growth of uninfected CEM cells
How it was run: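 Five concentrations of each compound were applied to infected and uninfected human CEM cells. Protection from HIV-1 was judged from growth measured with a soluble formazan assay.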

Compound	EC50	IC50	outcome
c1ccc2c(c1)nnn2CNc1ccc(N2CCOCC2)cc1	> 200 µM	51.3 µM	
C=C(C[N+](C)(C)C)N/N=C/c1oc(-c2ccc(OC)c(OC)c2)c(-c2ccc(OC)c(OC)c2)c1[N+](=O)[O-]	> 12.9 µM	> 12.9 µM	
CC(O)CN1c2ccccc2Sc2ccccc21 (configuration not stated)	> 200 µM	> 200 µM	
OC1(c2cccc(Cl)c2)C2=NCCCN2c2ccccc21 (configuration not stated)			inactive
COC(=N)/C(C#N)=N/C1OCC(O)C(O)C1O (configuration not stated)			inactive
CC1(C)CC(=O)C2=C(C1)OC1=C(CC(C)(C)CC1=O)C2c1ccccc1[N+](=O)[O-] (configuration not stated)	> 200 µM	> 200 µM	
COc1cc(C(c2ccc3c(c2)OCO3)N2C(=O)CCC2C(=O)O)cc(OC)c1OC (configuration not stated)	> 200 µM	> 200 µM	
NC(=S)NN/C=C(\C=Nc1ccccc1)[N+](=O)[O-]	> 355 µM	178 µM	
COc1ccccc1NC(=O)C(/C=N/C(N)=S)=C(\C)O	> 200 µM	> 200 µM	
Cc1csc([C@H]2CCC3[C@@H]4CC=C5C[C@@H](O)CC[C@]5(C)C4CC[C@@]32C)n1 (some centres not stated)	> 67.6 µM	> 67.6 µM	
[N-]=[N+]=NC(=O)c1ccc(S(=O)(=O)c2ccc(F)cc2)cc1			inactive
CCC1CCN=C(Cn2cc(C)c(=O)[nH]c2=O)N1 (configuration not stated)	> 200 µM	> 200 µM	
CN1CSC(=S)N(C)C1	> 200 µM	13.2 µM	
CCOc1ccc2nc(NC(=O)C(=O)C3C(=O)C(CC4C(=O)c5ccccc5C4=O)C(=O)CC3(C)C)sc2c1 (configuration not stated)	> 6.92 µM	> 6.92 µM	
CN(C)C[C@H]1CC[C@@H](CN(C)C)C1=O			inactive
Cc1ccc(NC(=O)C2C(=O)C(=O)N(c3ccc(C)cc3)C2=O)cc1 (configuration not stated)	> 15.5 µM	> 15.5 µM	
N#CCCN(CCC#N)c1ccc(/C=C2\N=C(c3ccccc3)N(c3ccccc3)C2=O)cc1	> 200 µM	7.76 µM	

Compound	EC50	IC50	outcome
CN1C(=O)[C@H](c2c[nH]c3ccccc23)[C@H](c2c[nH]c3ccccc23)C1=O	> 129 µM	38 µM	
O=C(CN1C(=O)c2cccc3c(Br)ccc(c23)C1=O)c1ccc(Cl)cc1	> 200 µM	33.1 µM	
Cc1ccc2c(c1)NC(=S)N=S2(C)=O (configuration not stated)	> 158 µM	93.3 µM	
Clc1ccc(CSc2cnnc3c(Br)cccc23)c(Cl)c1	> 24.5 µM	> 24.5 µM	
O=S(CC(O)c1ccccc1)c1ccccc1 (configuration not stated)	> 200 µM	23.4 µM	
COC(=O)C1CCCN1C(=O)C(Cc1cn(S(=O)(=O)c2ccc(C)cc2)cn1)NC(=O)OC(C)(C)C (configuration not stated)	> 200 µM	> 200 µM	
Cc1ncc([N+](=O)[O-])n1CCNC(=O)CCC(=O)NCCCn1ccnc1[N+](=O)[O-]	> 200 µM	> 200 µM	
Cn1c(=O)c(C(=O)NC(=O)OCc2ccccc2)cn(CCCOC(=O)CCCCCCCCC(=O)OCCCn2cc(C(=O)NC(=O)OCc3ccccc3)c(=O)n(C)c2=O)c1=O	> 21.4 µM	> 21.4 µM	
O=C1NNC=Nc2ccc(cc2)S(=O)(=O)c2ccc(cc2)N=CNNC1=O	> 224 µM	162 µM	
CC1=CC(C)C(=O)N(CCN2CCOCC2)C(C)=C1 (configuration not stated)	> 955 µM	> 955 µM	
Cc1nn(C(=O)c2ccccc2O)c2c1C(c1ccc(O)cc1)SC(N)=N2 (configuration not stated)	> 2 µM	0.129 µM	
O=C1CC(c2ccc(O)c(O)c2)c2cc(O)c3c(c2O1)C[C@@H](O)[C@@H](c1ccc(O)c(O)c1)O3 (some centres not stated)	> 200 µM	15.8 µM	
CC1CCP(=O)(c2ccccc2)C1 (configuration not stated)	> 1290 µM	> 1290 µM	
Cc1nc2ccc(Br)cc2c(=O)n1-c1ccc(N)cc1	> 200 µM	> 200 µM	
CC(C)(C)N/N=C(\C(=O)Nc1nc(=S)[nH][nH]1)C1C(=O)Nc2ccccc2S1=O (configuration not stated)			inactive
CCC[CH2][Sn]([CH2]CCC)([O]C(=O)C(OC)c1ccccc1)[O]C(=O)C(OC)c1ccccc1 (configuration not stated)	> 6.76 µM	0.182 µM	
CCO/C=N\C1=C(C#N)SC2=N/C(=C\c3ccco3)C(=O)N21			inactive
